According to patent US20210300924A1, “5-[6-[[3-(4,5,6,7-TETRAHYDROPYRAZOLO[4,3-C]PYRIDIN-1-YL)AZETIDIN-1-YL]METHYL]MORPHOLIN-4-YL]QUINOLINE-8-CARBONITRILE DERIVATIVES AND SIMILAR COMPOUNDS AS TLR7-9 ANTAGONISTS FOR TREATING SYSTEMIC LUPUS ERYTHEMATOSUS” (Hoffmann-La Roche Inc., priority 2018, published 2021):

Experiments:
CYP2D6 = biological target: T1, CYP2D6 (Homo sapiens, UniProt P10635); test: CYP inhibition assay in human liver microsome; type: in vitro ADME; details: human liver microsomes, probe dextromethorphan, dextromethorphan substrate, percentage inhibition <0: not or weak inhibitor, read-out: CYP 2D6 inhibition % @ 10 μM
T1 construct: tissue BD-Gentest 452117; host or cells: human liver microsomes
Experimental: This is a high throughput screening assay used for assessment of reversible inhibition of CYP2D6 activity of test compounds in human liver microsome (HLM) in early discovery stage.
10 mM DMSO stock solutions of test compounds were diluted in DMSO to generate 2 mM intermediate stock solution. 250 nL of intermediate stock solution were transferred in duplicate into 3 separate 384 well microtitre plates (assay-ready plates). A mixture of HLM and each substrate was made up. 45 μL of HLM substrate mix was then transferred to each well of an assay ready plate and mixed. The negative (solvent) and positive control (standard inhibitor for CYP 2D6) were included in each assay ready plate. The assay ready plate was warmed to 37° C. in an incubator over 10 minutes. 5 μL pre-warmed NADPH regenerating system was added to each incubation well to start the reaction. Final incubation volume was 50 μL. The assay plate then was placed back in the 37° C. incubator. After 10 minutes incubation, incubates were quenched by addition of 50 μL 100% acetonitrile containing internal standards (20 ng/mL D3-Dextrorphan). The supernatants were collected for RapidFire/MS/MS analysis.
RapidFire online solid phase extraction/sample injection system (Agilent) coupled with API4000 triple quadrupole mass spectrometer (AB Sciex) were used for sample analysis. The mobile phase composed of acetonitrile and water supplemented with 0.1% formic acid. A C4 solid phase extraction cartridge is used for sample separation. MS detection is achieved in positive ion MRM mode.
Peak areas for substrate, metabolite and internal standard are determined using the RapidFire integrator software (version 3.6.12009.12296). Peak area ratios (PAR) of metabolite and internal standard (stable-labelled metabolite) are then calculated. The measurement window for each experiment is then defined:
PAR (0% activity)=average PAR for all incubations containing concentrated inhibitor;
Par (100% activity)=average PAR for all incubations containing no inhibitor (DMSO controls);
% Activity (test inhibitor)=
[PAR(test inhibitor)−PAR(0% activity)]/[PAR(100% activity)−PAR(0% activity)]; % Inhibition (test inhibitor)=100−% Activity (test inhibitor).

human TLR7 = biological target: T2, human TLR7 (Homo sapiens, UniProt Q9NYK1); test: HEK293-Blue-hTLR-7 cells assay; type: cell-based; details: HEK293-Blue-hTLR7 cells, R848 stimulation, 20 hrs, SEAP reporter; read-out: HEK/hTLR7 IC50
T2 construct: host or cells: HEK293 (HEK-Blue hTLR7)
T2 sequence (Q9NYK1 27-1049): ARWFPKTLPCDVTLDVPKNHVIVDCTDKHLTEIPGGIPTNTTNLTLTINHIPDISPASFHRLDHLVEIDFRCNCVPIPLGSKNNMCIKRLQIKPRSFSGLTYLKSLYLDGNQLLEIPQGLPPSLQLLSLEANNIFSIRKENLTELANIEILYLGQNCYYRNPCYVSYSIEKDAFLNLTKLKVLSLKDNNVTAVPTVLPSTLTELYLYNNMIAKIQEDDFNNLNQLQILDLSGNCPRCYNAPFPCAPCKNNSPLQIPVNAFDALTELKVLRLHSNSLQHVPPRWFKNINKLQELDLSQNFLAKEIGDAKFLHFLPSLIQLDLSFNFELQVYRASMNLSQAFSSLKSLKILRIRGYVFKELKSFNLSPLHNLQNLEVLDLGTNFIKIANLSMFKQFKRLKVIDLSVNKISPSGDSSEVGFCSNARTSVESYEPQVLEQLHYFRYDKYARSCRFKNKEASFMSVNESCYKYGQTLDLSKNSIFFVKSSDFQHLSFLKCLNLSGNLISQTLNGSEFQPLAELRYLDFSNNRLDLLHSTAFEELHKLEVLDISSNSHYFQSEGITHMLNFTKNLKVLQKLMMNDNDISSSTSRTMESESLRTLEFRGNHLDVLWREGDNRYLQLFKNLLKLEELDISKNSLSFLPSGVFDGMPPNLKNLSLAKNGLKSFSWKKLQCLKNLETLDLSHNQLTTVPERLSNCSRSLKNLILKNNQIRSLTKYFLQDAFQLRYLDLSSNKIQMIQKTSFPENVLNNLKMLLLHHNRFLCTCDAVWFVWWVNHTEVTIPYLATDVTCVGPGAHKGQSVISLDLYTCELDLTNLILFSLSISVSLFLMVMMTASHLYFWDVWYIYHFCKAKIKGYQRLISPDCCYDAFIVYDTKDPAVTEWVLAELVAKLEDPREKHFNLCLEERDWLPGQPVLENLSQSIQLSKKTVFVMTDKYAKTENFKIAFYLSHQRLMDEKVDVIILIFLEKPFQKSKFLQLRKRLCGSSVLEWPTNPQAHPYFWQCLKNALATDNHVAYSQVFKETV
Text: HEK293-Blue-hTLR-7 cells assay:
A stable HEK293-Blue-hTLR-7 cell line was purchased from InvivoGen (Cat. #: hkb-htlr7, San Diego, Calif., USA). These cells were originally designed for studying the stimulation of human TLR7 by monitoring the activation of NF-κB. A SEAP (secreted embryonic alkaline phosphatase) reporter gene was placed under the control of the IFN-β minimal promoter fused to five NF-κB and AP-1-binding sites. The SEAP was induced by activating NF-κB and AP-1 via stimulating HEK-Blue hTLR7 cells with TLR7 ligands. Therefore the reporter expression was declined by TLR7 antagonist under the stimulation of a ligand, such as R848 (Resiquimod), for incubation of 20 hrs. The cell culture supernatant SEAP reporter activity was determined using QUANTI-Blue™ kit (Cat. #: rep-qb1, Invivogen, San Diego, Ca, USA) at a wavelength of 640 nm, a detection medium that turns purple or blue in the presence of alkaline phosphatase.
HEK293-Blue-hTLR7 cells were incubated at a density of 250,000-450,000 cells/mL in a volume of 170 μL in a 96-well plate in Dulbecco's Modified Eagle's medium (DMEM) containing 4.5 g/L glucose, 50 U/mL penicillin, […], […], 2 mM L-glutamine, 10% (v/v) heat-inactivated fetal bovine serum with addition of 20 μL test compound in a serial dilution in the presence of final DMSO at 1% and 10 μL of 20 uM R848 in above DMEM, perform incubation under 37° C. in a CO2 incubator for 20 hrs. Then 20 μL of the supernatant from each well was incubated with 180 μL Quanti-blue substrate solution at 37° C. for 2 hrs and the absorbance was read at 620˜655 nm using a spectrophotometer. The signaling pathway that TLR7 activation leads to downstream NF-κB activation has been widely accepted, and therefore similar reporter assay was modified for evaluating TLR7 antagonist.

T1 sequence (P10635 whole entry): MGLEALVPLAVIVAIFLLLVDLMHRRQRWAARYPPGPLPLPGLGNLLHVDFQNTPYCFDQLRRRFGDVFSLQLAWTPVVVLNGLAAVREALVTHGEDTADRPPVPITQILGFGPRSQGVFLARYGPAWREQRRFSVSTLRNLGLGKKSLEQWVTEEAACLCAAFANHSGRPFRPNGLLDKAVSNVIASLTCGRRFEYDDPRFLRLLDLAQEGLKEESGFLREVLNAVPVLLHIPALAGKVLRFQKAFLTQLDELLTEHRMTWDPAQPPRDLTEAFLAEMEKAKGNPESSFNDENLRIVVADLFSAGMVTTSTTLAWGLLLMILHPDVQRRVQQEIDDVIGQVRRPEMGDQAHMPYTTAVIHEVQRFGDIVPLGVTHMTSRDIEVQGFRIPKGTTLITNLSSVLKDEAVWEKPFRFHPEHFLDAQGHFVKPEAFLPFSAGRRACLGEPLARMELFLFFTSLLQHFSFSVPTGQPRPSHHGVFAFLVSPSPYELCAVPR

inhibition at 10 min, 10 µM (CYP2D6) [%] | IC50 (human TLR7) [nM] | SMILES
1.5 | 4 | C[C@@H]1Cc2nn(C3CN(C[C@H]4CN(c5ccc(C#N)c6ncccc56)C[C@@H](C)O4)C3)cc2CN1 [Example 17, 5-[(2R,6S)-2-methyl-6-[[3-[(6R)-6-methyl-4,5,6,7-tetrahydropyrazolo[4,3-c]pyridin-2-yl]azetidin-1-yl]methyl]morpholin-4-yl]quinoline-8-carbonitrile]
-2.5 | 17 | C[C@@H]1CN(c2ccc(C#N)c3ncccc23)C[C@H](CN2CC(n3ncc4c3C[C@H](C)NC4)C2)O1 [Example 18, 5-[(2R,6S)-2-methyl-6-[[3-[(6S)-6-methyl-4,5,6,7-tetrahydropyrazolo[4,3-c]pyridin-1-yl]azetidin-1-yl]methyl]morpholin-4-yl]quinoline-8-carbonitrile]
-2.5 | 19 | C[C@@H]1CN(c2ccc(C#N)c3ncccc23)C[C@H](CN2CC(n3cc4c(n3)C[C@H](C)NC4)C2)O1 [Example 19, 5-[(2R,6S)-2-methyl-6-[[3-[(6S)-6-methyl-4,5,6,7-tetrahydropyrazolo[4,3-c]pyridin-2-yl]azetidin-1-yl]methyl]morpholin-4-yl]quinoline-8-carbonitrile]
-6 | 5 | C[C@@H]1CN(c2ccc(C#N)c3ncccc23)C[C@H](CN2CC(n3ncc4c3CCN[C@@H]4C)C2)O1 [Example 20, 5-[(2R,6S)-2-methyl-6-[[3-[(4R)-4-methyl-4,5,6,7-tetrahydropyrazolo[4,3-c]pyridin-1-yl]azetidin-1-yl]methyl]morpholin-4-yl]quinoline-8-carbonitrile]
10.5 | 18 | C[C@@H]1CN(c2ccc(C#N)c3ncccc23)C[C@H](CN2CC(n3cc4c(n3)CCN[C@@H]4C)C2)O1 [Example 21, 5-[(2R,6S)-2-methyl-6-[[3-[(4R)-4-methyl-4,5,6,7-tetrahydropyrazolo[4,3-c]pyridin-2-yl]azetidin-1-yl]methyl]morpholin-4-yl]quinoline-8-carbonitrile]
5.5 | 5 | C[C@@H]1CN(c2ccc(C#N)c3ncccc23)C[C@H](CN2CC(n3ncc4c3CCN[C@H]4C)C2)O1 [Example 22, 5-[(2R,6S)-2-methyl-6-[[3-[(4S)-4-methyl-4,5,6,7-tetrahydropyrazolo[4,3-c]pyridin-1-yl]azetidin-1-yl]methyl]morpholin-4-yl]quinoline-8-carbonitrile]
3 | 13 | C[C@@H]1CN(c2ccc(C#N)c3ncccc23)C[C@H](CN2CC(n3cc4c(n3)CCN[C@H]4C)C2)O1 [Example 23, 5-[(2R,6S)-2-methyl-6-[[3-[(4S)-4-methyl-4,5,6,7-tetrahydropyrazolo[4,3-c]pyridin-2-yl]azetidin-1-yl]methyl]morpholin-4-yl]quinoline-8-carbonitrile]
20.3 | 18 | C[C@@H]1CN(c2ccc(C#N)c3ncccc23)C[C@H](CN2CCC(n3cc4c(n3)CCNC4)CC2)O1 [Example 36, 5-[(2R,6S)-2-methyl-6-[[4-(4,5,6,7-tetrahydropyrazolo[4,3-c]pyridin-2-yl)-1-piperidyl]methyl]morpholin-4-yl]quinoline-8-carbonitrile]
17.5 | 7 | Cc1nn(C2CN(C[C@H]3CN(c4ccc(C#N)c5ncccc45)C[C@@H](C)O3)C2)c2c1CCNC2 [Example 42, 5-[(2R,6S)-2-methyl-6-[[3-(3-methyl-4,5,6,7-tetrahydropyrazolo[3,4-c]pyridin-1-yl)azetidin-1-yl]methyl]morpholin-4-yl]quinoline-8-carbonitrile]
